Among the test systems are NCI-H522; COLO 205; NCI-H226; ACHN; HCT-116; LOX IMVI; SNB-75; OVCAR-8; UO-31; SF-539; NCI-H23; NCI/ADR-RES; BT-549; HCC 2998; Malme-3M; MDA-MB-231; HOP-92; EKVX; CAKI-1; T47D.
What all share (experiment): NCI anticancer screen, dose series, 48 h

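Briefly, cells in 96-well plates were exposed to five compound concentrations for 48 h, and endpoints were estimated by linear interpolation. The concentration for 50% growth inhibition is given as GI50.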 Activity calls are given as the source filed them. No stated cut-off is given here; in the data, active = GI50 up to about 1.1 µM and inactive = higher.

We go through ten molecules from ChEMBL document CHEMBL1201862, “PubChem BioAssay data set” (2004).

Take `Cn1c(Sc2ccc(-c3cccnc3)n2C)ccc1-c1cccnc1`: the GI50 in the experiment with NCI-H522 is 10.3 µM (inactive); in the experiment with COLO 205, 20 µM (inactive); in the experiment on NCI-H226 it was 24.5 µM (inactive); in the experiment on ACHN it was 20.2 µM (inactive); in the experiment with HCT-116, 8.79 µM (inactive); with LOX IMVI it was 3.73 µM (inactive). In addition, the GI50 is 21.8 µM (inactive) with SNB-75; 18.1 µM (inactive) in the experiment on OVCAR-8; 17.5 µM (inactive) with UO-31; 20.7 µM (inactive) with SF-539; 16.7 µM (inactive) with NCI-H23; 21.8 µM (inactive) with NCI/ADR-RES. Also, the GI50 in the experiment with BT-549 was 20.4 µM (inactive); in the experiment on HCC 2998, 20.2 µM (inactive); in the experiment with Malme-3M, 11.1 µM (inactive); in the experiment on MDA-MB-231, 18.2 µM (inactive); with HOP-92, 12.9 µM (inactive); in the experiment on EKVX, 24 µM (inactive). The GI50 is 19.1 µM (inactive) in the experiment on CAKI-1 and 16.7 µM (inactive) in the experiment with T47D.
Consider `N=C(N)SCc1ccc(Cl)c2ccccc12.O=[N+]([O-])c1c(O)c(Cl)cc(Cl)c1Cl`, for which the GI50 in the experiment on NCI-H522 was 4.56 µM (inactive); in the experiment with COLO 205, 10.6 µM (inactive); in the experiment with NCI-H226, 12 µM (inactive); in the experiment on ACHN, 12.5 µM (inactive); with HCT-116, 11.8 µM (inactive); in the experiment on LOX IMVI, 14.4 µM (inactive). Further, the GI50 in the experiment with SNB-75 is 11.1 µM (inactive); in the experiment on OVCAR-8, 17.7 µM (inactive); in the experiment with UO-31 it was 9.98 µM (inactive); with SF-539, 8.65 µM (inactive); in the experiment on NCI-H23 it was 12.9 µM (inactive); in the experiment with NCI/ADR-RES, 17.9 µM (inactive). The GI50 in the experiment on BT-549 is 14.8 µM (inactive); with HCC 2998, 2.33 µM (inactive); in the experiment on Malme-3M, 9.1 µM (inactive); with MDA-MB-231, 8.22 µM (inactive); in the experiment on HOP-92, 5.89 µM (inactive); in the experiment on EKVX, 7.03 µM (inactive). Besides, the GI50 is 5.57 µM (inactive) in the experiment with CAKI-1 and 4.19 µM (inactive) in the experiment with T47D.
With `C=C(C)c1nc(Oc2ccccc2)nc(Oc2ccccc2)n1`, the GI50 in the experiment on NCI-H522 is 1.16 µM (inactive); in the experiment with COLO 205, 5.42 µM (inactive); in the experiment with NCI-H226, 19.9 µM (inactive); with ACHN, 8.63 µM (inactive); in the experiment with HCT-116 it was 3.53 µM (inactive); in the experiment on LOX IMVI, 2.08 µM (inactive). Besides, the GI50 in the experiment with SNB-75 was 9.75 µM (inactive); in the experiment on OVCAR-8 it was 4.8 µM (inactive); in the experiment on UO-31 it was 17.6 µM (inactive); with SF-539, 6.37 µM (inactive); in the experiment on NCI-H23 it was 6.64 µM (inactive); in the experiment on NCI/ADR-RES it was 10.9 µM (inactive). Besides, the GI50 in the experiment with BT-549 is 3.32 µM (inactive); in the experiment on HCC 2998 it was 3.99 µM (inactive); in the experiment on Malme-3M, 13.9 µM (inactive); with MDA-MB-231, 14.1 µM (inactive); in the experiment with HOP-92 it was 4.93 µM (inactive); in the experiment with EKVX it was 13.6 µM (inactive). Further, the GI50 is 2.06 µM (inactive) in the experiment on CAKI-1 and 5.36 µM (inactive) in the experiment with T47D.
`C#CC[C@@H]1C(=O)N(Cc2ccc(OC)cc2)[C@@H](C(C)C)C(=O)N1Cc1ccc(OC)cc1`: the GI50 in the experiment on NCI-H522 was 28 µM (inactive); with COLO 205 it was 19.4 µM (inactive); in the experiment with NCI-H226 it was 35.2 µM (inactive); with ACHN, 45.4 µM (inactive); in the experiment with HCT-116 it was 28.1 µM (inactive); in the experiment on LOX IMVI it was 36.4 µM (inactive). For the same molecule, the GI50 in the experiment on SNB-75 is 24 µM (inactive); in the experiment with OVCAR-8, 46.1 µM (inactive); in the experiment with UO-31, 33.7 µM (inactive); in the experiment on SF-539, 29.2 µM (inactive); in the experiment on NCI-H23, 33.2 µM (inactive); in the experiment with NCI/ADR-RES, 31.2 µM (inactive). The GI50 is 29.4 µM (inactive) with BT-549; 47.1 µM (inactive) in the experiment with HCC 2998; 55.2 µM (inactive) in the experiment with Malme-3M; 83.2 µM (inactive) in the experiment with MDA-MB-231; 84.3 µM (inactive) with HOP-92; 28.4 µM (inactive) with EKVX. Moreover, the GI50 with CAKI-1 is > 100 µM (inactive); in the experiment with T47D it was 16.4 µM (inactive).
As for `CN(CCNC(=O)c1cn(C)c2c1ccc1cc(Cl)c(Cl)cc12)CCNC(=O)c1cn(C)c2c1ccc1cc(Cl)c(Cl)cc12`, the GI50 was 1.97 µM (inactive) in the experiment with NCI-H522; 1.64 µM (inactive) in the experiment on COLO 205; 24.7 µM (inactive) with NCI-H226; 1.92 µM (inactive) in the experiment with ACHN; 1.94 µM (inactive) in the experiment on HCT-116; 1.74 µM (inactive) in the experiment on LOX IMVI. In addition, the GI50 in the experiment on SNB-75 is 1.58 µM (inactive); with OVCAR-8, 1.79 µM (inactive); in the experiment on UO-31 it was 1.72 µM (inactive); with SF-539, 2.61 µM (inactive); in the experiment on NCI-H23 it was 5.22 µM (inactive); in the experiment with NCI/ADR-RES, 2.26 µM (inactive). Further, the GI50 with BT-549 was 19.7 µM (inactive); in the experiment with HCC 2998, 1.69 µM (inactive); with Malme-3M it was 7.83 µM (inactive); in the experiment on MDA-MB-231 it was 1.75 µM (inactive); in the experiment on HOP-92 it was 2.17 µM (inactive); in the experiment with EKVX, 2.7 µM (inactive). Moreover, the GI50 in the experiment with CAKI-1 was 3.84 µM (inactive); in the experiment on T47D, 1.93 µM (inactive).
As to `CN(C)c1ccc(/N=N/c2ccccn2)cc1`, the GI50 in the experiment with NCI-H522 was 38.7 µM (inactive); in the experiment on COLO 205, 6.58 µM (inactive); in the experiment with NCI-H226 it was 32 µM (inactive); in the experiment on ACHN, 31.8 µM (inactive); in the experiment with HCT-116, 6.67 µM (inactive); in the experiment on LOX IMVI it was 57.5 µM (inactive). Further, the GI50 in the experiment with SNB-75 is 52.1 µM (inactive); with OVCAR-8 it was 38.9 µM (inactive); in the experiment with UO-31, 24.1 µM (inactive); in the experiment on SF-539, 52.2 µM (inactive); with NCI-H23 it was 14.2 µM (inactive); with NCI/ADR-RES, 5.04 µM (inactive). The GI50 was 81.3 µM (inactive) in the experiment on BT-549; 14.1 µM (inactive) with HCC 2998; 22.6 µM (inactive) in the experiment with Malme-3M; 20.8 µM (inactive) with MDA-MB-231; 69.8 µM (inactive) in the experiment on HOP-92; 11.9 µM (inactive) with EKVX. Further, the values for the GI50 with CAKI-1 and in the experiment with T47D were 32.2 µM (inactive) and 11.2 µM (inactive), respectively.
For `COC(=O)c1c(C)cccc1/C=C1/Cc2c(C)cccc2C1=O`, the GI50 in the experiment on NCI-H522 was > 100 µM (inactive); in the experiment with COLO 205, > 10 µM (inactive); in the experiment with NCI-H226 it was > 100 µM (inactive); in the experiment on ACHN, 86.7 µM (inactive); with HCT-116, > 100 µM (inactive); with LOX IMVI, 20.5 µM (inactive). Besides, the GI50 with SNB-75, with OVCAR-8, with UO-31, in the experiment with SF-539, with NCI-H23 and in the experiment on NCI/ADR-RES was > 100 µM (inactive) throughout. For the same molecule, the GI50 in the experiment with BT-549 was 28.2 µM (inactive); with HCC 2998 it was > 100 µM (inactive); in the experiment on Malme-3M, > 100 µM (inactive); in the experiment with MDA-MB-231, > 100 µM (inactive); in the experiment with HOP-92 it was 58.1 µM (inactive); in the experiment on EKVX it was > 100 µM (inactive). Further, the GI50 in the experiment on CAKI-1 is > 100 µM (inactive); in the experiment on T47D, 50.8 µM (inactive).
For the molecule `O=C1/C(=C/c2ccc(Cl)cc2)CCC1CN1CCOCC1` (stereo not given), the GI50 is 1.81 µM (inactive) with NCI-H522; 7.8 µM (inactive) with COLO 205; 20.6 µM (inactive) with NCI-H226; 11.2 µM (inactive) in the experiment on ACHN; 4.2 µM (inactive) in the experiment on HCT-116; 2.28 µM (inactive) with LOX IMVI. Besides, the GI50 was 20.5 µM (inactive) in the experiment on SNB-75; 6.68 µM (inactive) in the experiment with OVCAR-8; 9.08 µM (inactive) in the experiment with UO-31; 10.6 µM (inactive) in the experiment with SF-539; 9.14 µM (inactive) with NCI-H23; 4.88 µM (inactive) with NCI/ADR-RES. For the same molecule, the GI50 in the experiment with BT-549 was 11.3 µM (inactive); with HCC 2998, 9.75 µM (inactive); in the experiment with Malme-3M, 6.52 µM (inactive); in the experiment with MDA-MB-231 it was 3.83 µM (inactive); in the experiment on HOP-92, 3.96 µM (inactive); in the experiment with EKVX, 12.2 µM (inactive). For the same molecule, the GI50 in the experiment with CAKI-1 was 4.37 µM (inactive); with T47D, 0.678 µM (active).
As to `CC(=O)OCC1=C(C(=O)O)N2C(=O)C(NC(=O)CSc3ccncc3)C2SC1` (stereo not given), the GI50 in the experiment with NCI-H522, with COLO 205, in the experiment with NCI-H226, in the experiment with ACHN, in the experiment with HCT-116 and with LOX IMVI was > 100 µM (inactive) each time. Moreover, the GI50 with SNB-75, in the experiment with OVCAR-8, with UO-31, in the experiment on SF-539, with NCI-H23 and in the experiment on NCI/ADR-RES was > 100 µM (inactive) in each case. The GI50 with BT-549, with HCC 2998, in the experiment on Malme-3M, in the experiment on MDA-MB-231, in the experiment on HOP-92 and in the experiment on EKVX was > 100 µM (inactive) each time. Moreover, the GI50 in the experiment on CAKI-1 and in the experiment with T47D was > 100 µM (inactive) throughout.
In the case of `CNC=O`, the GI50 was > 10000 µM (inactive) with NCI-H522; > 10000 µM (inactive) in the experiment on COLO 205; > 10000 µM (inactive) in the experiment on NCI-H226; > 10000 µM (inactive) with ACHN; > 10000 µM (inactive) in the experiment with HCT-116; > 9180 µM (inactive) in the experiment on LOX IMVI. The GI50 in the experiment with SNB-75 is 8150 µM (inactive); with OVCAR-8 it was > 10000 µM (inactive); in the experiment on UO-31, > 10000 µM (inactive); in the experiment on SF-539 it was > 10000 µM (inactive); in the experiment with NCI-H23 it was > 10000 µM (inactive); in the experiment with NCI/ADR-RES, > 10000 µM (inactive). The GI50 is > 10000 µM (inactive) with BT-549; > 3980 µM (inactive) with HCC 2998; > 10000 µM (inactive) in the experiment on Malme-3M; > 10000 µM (inactive) with MDA-MB-231; > 9530 µM (inactive) in the experiment with HOP-92; > 10000 µM (inactive) in the experiment with EKVX. The GI50 in the experiment with CAKI-1 and with T47D was > 10000 µM (inactive) in each case.
